Experimental data reported in the NIST ThermoML archive (doi:10.1016/j.jct.2016.12.032).

Experiment: xn = mol fraction of the nth substance listed
Conditions: 100 kPa, Liquid; for mass density: Vibrating tube method; for viscosity: Capillary tube (Ostwald / Ubbelohde) method

CC1CCC(=O)O1 (centres undefined) [γ-valerolactone] + CCCC[n+]1ccn(C)c1.O=S(=O)([N-]S(=O)(=O)C(F)(F)F)C(F)(F)F
Conditions	mass density, 308.15 K [kg/m3]	mass density, 313.15 K [kg/m3]	mass density, 318.15 K [kg/m3]	mass density, 323.15 K [kg/m3]	viscosity, 313.15 K [mPa·s]	viscosity, 318.15 K [mPa·s]	viscosity, 323.15 K [mPa·s]
x2 = 0	1039.87	1035.16	1030.45	1025.74	1.42	1.32	1.23
x2 = 0.0505	1094.09	1089.31	1084.53	1079.76	1.65	1.52	1.41
x2 = 0.1001	1138.71	1133.87	1129.05	1124.22	2	1.79	1.66
x2 = 0.1492	1176.8	1171.93	1167.06	1162.18	2.45	2.22	2.04
x2 = 0.1998	1208.52	1203.61	1198.73	1193.83	3.17	2.8	2.49
x2 = 0.3008	1259.2	1254.26	1249.35	1244.4	4.5	4.03	3.59
x2 = 0.4031	1302.39	1297.42	1292.49	1287.51	6.65	5.76	5.19
x2 = 0.5048	1332.11	1327.12	1322.17	1317.18	9.02	7.84	6.98
x2 = 0.6031	1358.2	1353.2	1348.24	1343.25	12.05	10.41	9.22
x2 = 0.6973	1378.98	1373.98	1369.02	1364.02	15.14	12.96	11.45
x2 = 0.7994	1398.34	1393.33	1388.35	1383.35	19.14	16.42	14.32
x2 = 0.8711	1411.63	1406.62	1401.62	1396.6	22.7	19.25	16.68
